Data as given in patent publication US20250360138A1 (priority 2022, published 2025).
“Also recorded” adds a separate entry of the source. Like-named read-outs stand apart in the source and are kept apart here.

Key:
[1] = test system: G. lamblia GS-clone H7 trophozoites; experiment: G. lamblia GS-clone H7 trophozoite growth, ATP-based bioluminescence (BacTiter-Glo) primary screen and dose response; format: cell-based; settings: read-out: Anti-Giardia EC50
[2] = test system: G. lamblia WB6 (Assemblage A); experiment: Cell growth inhibition against G. lamblia WB6; format: cell-based, Giardia lamblia
Protocol: (§1) Giardia lamblia culture. G. lamblia WB6 strain, G. lamblia CBG99 strain, metronidazole-resistant strain 713-M3 and G. lamblia (Lambl) Alexeieff trophozoites (GS-clone H7; ATCC 50581) used for the primary screening were maintained in modified TYI-S-33 medium (ATCC 2695) and assayed as earlier described (Keister, 1983, Trans R Soc Trop Med Hyg 77: 487-488). Subsequent assays, including the mouse model of infection, used the G. lamblia click beetle green (CBG99) strain which was grown and assayed as previously described (Michaels et al., 2020, J Antimicrob Chemother 75:1218-1227; and Keister, 1983, Trans R Soc Trop Med Hyg 77:487-488).

[3] = test system: metronidazole resistant 713-M3 strain; experiment: Cell growth inhibition against metronidazole resistant 713-M3 strain; format: cell-based, Giardia lamblia
Protocol: as §1

[4] = Resazurin-based viability assay, CRL-8155; format: cell-based; settings: human, CRL-8155 lymphocytic cells; CRL-8155 cells
Protocol: (§2) Experimental details for the assays were earlier described (Love et al., 2017, PLoS Negl Trop Dis 11:e0005373). Compounds in the follow-up assays were also tested for the inhibition of CRL-8155 (human lymphocytic cells and human hepatocellular carcinoma cells (HepG2; ATCC HB-8065) in a resazurin-based viability assay as indicators of potential host cell toxicity. Assays were performed as previously reported (Vidadala et al., 2014, Eur J Med Chem 74:562-57).

[5] = Resazurin-based viability assay, HepG2; format: cell-based; settings: human, HepG2 hepatocellular carcinoma cells
Protocol: as §2

G. lamblia CBG99 = experiment: Luciferase reporter acute murine Giardia infection model, whole animal IVIS imaging; format: in vivo, Giardia lamblia
Excerpt: The method relies on a stable constitutive luciferase reporter, CBG99 (Click beetle green), that correlates with parasite load in vitro and in vivo. […] Only mice with confirmed infections are used in experiments.
All animal experiments were approved by the Institutional Animal Care and Use Committees at the University of Washington.
The method relies on a stable constitutive reporter, CBG99, that correlates with total parasite load.

[6] = Mouse pharmacokinetics, plasma concentration by LC-MS/MS; format: in vivo; settings: for half-life: read-out: average half-life (t1/2); for Cmax: mouse plasma
Protocol: Methods for pharmacokinetic studies and analysis of mouse plasma compound concentrations by liquid chromatography with tandem mass spectrometry (LC-MS/MS) have previously been described (Hulverson et al., 2017, J Infect Dis 215:1275-1284; Ojo et al., 2012, J Clin Invest 122:2301-2305; and Schaefer et al., 2016, J Infect Dis 214:1856-1864). The pK studies was performed in groups of 3 mice per compound. […] Blood samples collected at intervals between 0.5 and 24 hours were separated and extracted with acetonitrile for measurement of compound concentrations by combined liquid chromatography-electrospray mass spectrometry (LC/ES-MS).

[7] = Clinical evaluation of overall health of mice in PK and efficacy studies; format: in vivo
[8] = Mouse pharmacokinetics, plasma concentration by LC-MS/MS; format: in vivo; settings: infected mice, all treatment groups, days 6 and 7 post-infection (24 and 48 hours after first dose)
[9] = adult humans, daily oral doses over 7 days; cited from earlier work
HEK293T = experiment: Mammalian cytotoxicity counter screen, luminescent ATP viability assay; format: cell-based, human; settings: toxicity in mammalian cell cultures versus G. lamblia GS-clone 7 trophozoites
Protocol: Mammalian cytotoxicity assays. Mammalian cell lines were used for counter screening for general cytotoxicity of hit compounds from the primary screen: human embryonic kidney cells (HEK293T; ATCC CRL-3216) was used in a luminescent ATP assay for detection of cell viability.
Data analysis. Relative luminescence units (RLU) values were analyzed in Genedata Screener (v13.0-Standard). RLU was normalized to neutral controls minus inhibitors (DMSO-treated wells minus metronidazole-treated wells). For single-point primary assay plates, an additional run-wise median correction was applied to reduce screen artifacts, whereas no corrections were applied to triplicate dose response plates. For the mammalian cytotoxicity assays, RLU was uploaded into Genedata Screener, and the data was normalized to DMSO-treated wells minus puromycin-treated wells.

[10] = G. lamblia GS-clone H7 (Assemblage B) trophozoites, 48 hours, dose response

**Q.** For C=CC(=O)N[C@H]1CN(c2nc(Nc3cn(C)nc3OC)c3ncn(C)c3n2)C[C@@H]1F [Mavelertinib], which EC50 ([1]; Giardia duodenalis, 48 h) is on record?
**A.** The EC50 was 2.34 µM.

**Q.** And the EC50 ([2]; Giardia duodenalis)?
**A.** The EC50 was 0.27 µM.

**Q.** And the EC50 ([3]; Giardia duodenalis)?
**A.** Its EC50 is 0.07 µM.

**Q.** And the CC50 [4]?
**A.** Its CC50 is > 80 µM.

**Q.** And the CC50 [5]?
**A.** Its CC50 is > 80 µM.

**Q.** And the clearance of infection (G. lamblia CBG99; IFN-γ-knockout mice, 1 mg/kg QD×4 days (days 6-9 p.i.), 1 mg/kg)?
**A.** The clearance of infection was “None of the 1 mg/kg QD×4 days mice were relieved of their infection; also recorded: did not clear the infection after 4 doses”.

**Q.** And the “efficacy in the acute murine Giardia infection model” value (G. lamblia CBG99; dosed as low as 5 mg/kg or as high as 50 mg/kg)?
**A.** Its value is “efficacious; also recorded: effectively clears Giardia infection”.

**Q.** What about the clearance of infection (G. lamblia CBG99; mice, 2.5 mg/kg QD×2 days) of the same compound?
**A.** The clearance of infection was “one of four mice remained infected”.

**Q.** And the “clearance of infection (luminescence signal)” value (G. lamblia CBG99; mice, 5 mg/kg QD×2 days, 5 mg/kg)?
**A.** The value was “cleared the infection below the background signal; also recorded: absence of luminescence signal”.

**Q.** What about the “clearance of infection (luminescence signal)” value (G. lamblia CBG99; mice, 20 mg/kg QD×2 days, 20 mg/kg) of the same compound?
**A.** The value was “cleared the infection below the background signal; also recorded: absence of luminescence signal”.

**Q.** What about the clearance of infection (G. lamblia CBG99; mice, 50 mg/kg QD for 3 days, oral) of the same compound?
**A.** The clearance of infection was “appeared to clear the infection”.

**Q.** What about the “clearance of infection (luminescence signal)” value (G. lamblia CBG99; mice, 50 mg/kg QD×1 day, 50 mg/kg) of the same compound?
**A.** Its value is “cleared the infection below the background signal; also recorded: absence of luminescence signal”.

**Q.** And the “parasite rebound after treatment” value (G. lamblia CBG99; mice, one week after the last therapeutic dose)?
**A.** Its value is “parasites did not rebound”.

**Q.** What about the clearance of infection (G. lamblia CBG99; mice, one- and two-day dosing of 50 mg/kg QD) of the same compound?
**A.** Its clearance of infection is “all treated mice were cleared of infection and remained clear a week after dosing”.

**Q.** And the half-life ([6]; in vivo, mouse, single oral 5 mg/kg)?
**A.** The half-life was 3.99 h.

**Q.** What about the Cmax ([6]; single oral 5 mg/kg) of the same compound?
**A.** Its Cmax is 0.63 µM.

**Q.** What about the Cmax ([6]; single oral 20 mg/kg) of the same compound?
**A.** Its Cmax is 3.5 µM.

**Q.** What about the Cmax ([6]; single oral 50 mg/kg) of the same compound?
**A.** The Cmax was 9.3 µM.

**Q.** And the plasma level ([6]; mouse, 1 mg/kg QD, 1 mg/kg)?
**A.** Its plasma level is “barely detectable in the plasma of one mouse at 0.5 hours post dose and below the limit of detection at all subsequent time points”.

**Q.** And the “plasma concentration at 24 h post dose” value ([6]; mouse, all dosage groups, single dose)?
**A.** Its value is “cleared from plasma by 24 hours; also recorded: below the detection limit”.

**Q.** And the AUC ([6]; mouse, single oral 5 mg/kg)?
**A.** The AUC was 89 µmol·min/L.

**Q.** And the Clearance ([6]; mouse, single oral 5 mg/kg)?
**A.** Its Clearance is 0.015 L/min.

**Q.** What about the AUC ([6]; mouse, single oral 20 mg/kg) of the same compound?
**A.** Its AUC is 300 µmol·min/L.

**Q.** And the Clearance ([6]; mouse, single oral 20 mg/kg)?
**A.** Its Clearance is 0.004 L/min.

**Q.** What about the AUC ([6]; mouse, single oral 50 mg/kg) of the same compound?
**A.** Its AUC is 812 µmol·min/L.

**Q.** And the Clearance ([6]; mouse, single oral 50 mg/kg)?
**A.** Its Clearance is 0.0016 L/min.

**Q.** What about the Tmax ([6]; plasma, oral, mouse, all doses) of the same compound?
**A.** The Tmax was 0.5 h.

**Q.** What about the half-life ([6]; plasma, mouse, single oral 20 mg/kg) of the same compound?
**A.** Its half-life is 2.91 h.

**Q.** What about the half-life ([6]; plasma, mouse, single oral 50 mg/kg) of the same compound?
**A.** Its half-life is 2.09 h.

**Q.** And the “signs of toxicity in mice” value [7]?
**A.** The value was “no sign of toxicity; also recorded: no observable mavelertinib induced toxicology potentials”.

**Q.** What about the plasma trough levels [8] of the same compound?
**A.** The plasma trough levels was “below the limit of quantitation”.

**Q.** What about the “daily oral dose causing diarrhea and skin toxicities as most common adverse events” value [9] of the same compound?
**A.** Its value is > 150 mg.

**Q.** With CC(=O)C[C@H]1CCCCN1 [pelletierine] as the compound, how does the EC50 [1, 10] read?
**A.** Its EC50 is 20.3 µM.

**Q.** What about the EC50 [2] of the same compound?
**A.** The EC50 was > 25 µM.

**Q.** What about the EC50 ([3]; metronidazole resistant 713-M3, read-out: EC50) of the same compound?
**A.** Its EC50 is > 25 µM.

**Q.** With Cc1ncc([N+](=O)[O-])n1CCO [metronidazole] as the compound, how does the clearance of infection (G. lamblia CBG99; mice, 20 mg/kg QD×3 days) read?
**A.** The clearance of infection was “remained infected after treatment”.

**Q.** For CS(=O)(=O)Nc1ccc(C(=O)O[C@@H](Cc2c(Cl)c[n+]([O-])cc2Cl)c2ccc(OC(F)F)c(OCC3CC3)c2)cc1OCC1CC1 [CHF-6001], which “Selectivity index (SI), CC50/EC50” value (HEK293T) is on record?
**A.** The value was > 12.

**Q.** Which EC50 ([1]; Giardia duodenalis, G. lamblia GS-clone H7 (Assemblage B) trophozoites, 48 hours, dose response) does the source give for CCN(CC)CCn1c(=O)c(Cc2ccc(OC)cc2)nc2ccccc21 [caroverine] here?
**A.** The EC50 was 13.7 µM.

**Q.** And the “Selectivity index (SI), CC50/EC50” value (HEK293T)?
**A.** Its value is > 2.

**Q.** For CS(=O)(=O)OCCN(CCBr)c1c(C(=O)NCCOP(=O)(O)O)cc([N+](=O)[O-])cc1[N+](=O)[O-] [PR-104], which EC50 [1, 10] is on record?
**A.** The EC50 was 1.98 µM.

**Q.** Which EC50 [1, 10] does the source give for CCCN(CCC)c1ccc(N=Nc2ccccc2C(=O)O)cc1 [propyl red] here?
**A.** Its EC50 is 5.78 µM.
